Assay: xn = mol fraction of the nth substance listed
Settings: 101 kPa

For O + C[N+](C)(CCCS(=O)(=O)O)C1CCCCC1.Cc1ccc(S(=O)(=O)[O-])cc1, the viscosity (308.15 K, x2 = 0) was 0.7218 mPa·s, the viscosity (313.15 K, x2 = 0) was 0.6564 mPa·s and the viscosity (318.15 K, x2 = 0) was 0.6071 mPa·s. It also gave a viscosity (323.15 K, x2 = 0) of 0.5538 mPa·s and a viscosity (328.15 K, x2 = 0) of 0.5064 mPa·s.

In the case of C[N+](C)(CCCS(=O)(=O)O)C1CCCCC1.Cc1ccc(S(=O)(=O)[O-])cc1 + O, the viscosity (303.15 K, x1 = 0.0106) is reported as 1.404 mPa·s, the viscosity (303.15 K, x1 = 0.0277) is reported as 2.684 mPa·s and the viscosity (303.15 K, x1 = 0.0603) is reported as 7.903 mPa·s. It also gave a viscosity (303.15 K, x1 = 0.1458) of 78.86 mPa·s, a viscosity (308.15 K, x1 = 0.0106) of 1.257 mPa·s and a viscosity (308.15 K, x1 = 0.0277) of 2.406 mPa·s. The viscosity (308.15 K, x1 = 0.1458) was 62.58 mPa·s, the viscosity (313.15 K, x1 = 0.0277) was 2.146 mPa·s and the viscosity (313.15 K, x1 = 0.1458) was 48.83 mPa·s. For the same compound, the viscosity (313.15 K, x1 = 1) was 32650 mPa·s, the viscosity (318.15 K, x1 = 0.0277) was 1.943 mPa·s and the viscosity (318.15 K, x1 = 0.0603) was 5.145 mPa·s. For the same compound, the viscosity (318.15 K, x1 = 1) was 17830 mPa·s, the viscosity (323.15 K, x1 = 0.0106) was 0.9115 mPa·s and the viscosity (323.15 K, x1 = 0.0277) was 1.789 mPa·s. It also gave a viscosity (323.15 K, x1 = 0.0603) of 4.579 mPa·s, a viscosity (323.15 K, x1 = 0.1458) of 31.56 mPa·s and a viscosity (323.15 K, x1 = 1) of 10187 mPa·s. For the same compound, the viscosity (328.15 K, x1 = 0.1458) was 25.56 mPa·s and the viscosity (328.15 K, x1 = 1) was 6293 mPa·s.

— a compilation of properties of binary mixtures (doi:10.1016/j.molliq.2016.12.089)
